From ChEMBL document CHEMBL1201862, “PubChem BioAssay data set” (2004)
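Values below derive from 48-hour exposures of cells grown in 96-well plates, with endpoints linearly interpolated between the two concentrations bracketing the appropriate inhibition level. GI50 marks 50% less growth.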 Activity calls are given as the source filed them. No stated cut-off is given here; in the data, active = GI50 up to about 1.1 µM and inactive = higher.

Tests used:
Assay in all cases: NCI tumour cell line growth inhibition, 48 h
A549 = test system: A549
COLO 205 = test system: COLO 205
HCC 2998 = test system: HCC 2998
HCT-116 = test system: HCT-116
IGROV-1 = test system: IGROV-1
K562 = test system: K562
KM12 = test system: KM12
LOX IMVI = test system: LOX IMVI
MOLT-4 = test system: MOLT-4
NCI-H226 = test system: NCI-H226
NCI-H460 = test system: NCI-H460
NCI-H522 = test system: NCI-H522
RPMI-8226 = test system: RPMI-8226
SF-295 = test system: SF-295
SK-MEL-28 = test system: SK-MEL-28
SN12C = test system: SN12C
SNB-19 = test system: SNB-19
SR = test system: SR
SW-620 = test system: SW-620
UO-31 = test system: UO-31

Row | SMILES | GI50 (A549) | GI50 (COLO 205) | GI50 (HCC 2998) | GI50 (HCT-116) | GI50 (IGROV-1) | GI50 (K562) | GI50 (KM12) | GI50 (LOX IMVI) | GI50 (MOLT-4) | GI50 (NCI-H226) | GI50 (NCI-H460) | GI50 (NCI-H522) | GI50 (RPMI-8226) | GI50 (SF-295) | GI50 (SK-MEL-28) | GI50 (SN12C) | GI50 (SNB-19) | GI50 (SR) | GI50 (SW-620) | GI50 (UO-31)
1 | CC1(C)Oc2ccc3ccc(=O)oc3c2C(O)C1O (stereo not given) | 32.2 µM (inactive) | 21.8 µM (inactive) | > 100 µM (inactive) | 38.8 µM (inactive) | 33.2 µM (inactive) | 37.6 µM (inactive) | 31.9 µM (inactive) | 29.5 µM (inactive) | 21.7 µM (inactive) | 48.3 µM (inactive) | 40 µM (inactive) | 33.7 µM (inactive) | 30.2 µM (inactive) | 36.1 µM (inactive) | 37.5 µM (inactive) | > 100 µM (inactive) | > 100 µM (inactive) | 59.4 µM (inactive) | 61.1 µM (inactive) | 27.5 µM (inactive)
2 | Cc1cc(O)nc2cc3oc4ccccc4c3cc12 | 7.64 µM (inactive) | 16.7 µM (inactive) | 2.72 µM (inactive) | 27.5 µM (inactive) | > 63.7 µM (inactive) | 30.9 µM (inactive) | 70.1 µM (inactive) | > 28.2 µM (inactive) | 3.71 µM (inactive) | 15.7 µM (inactive) | 3.91 µM (inactive) | 34.1 µM (inactive) | 37.9 µM (inactive) | > 100 µM (inactive) | > 100 µM (inactive) | > 100 µM (inactive) | > 50.6 µM (inactive) | 5.96 µM (inactive) | 35.2 µM (inactive) | > 27.5 µM (inactive)
3 | O=C1C(Cl)=C(N2CCN(c3ccccn3)CC2)C(=O)c2c(O)ccc(O)c21 | 6.49 µM (inactive) | 1.43 µM (inactive) | 2.51 µM (inactive) | 1.7 µM (inactive) | 1.63 µM (inactive) | 0.512 µM (active) | 3.1 µM (inactive) | 0.157 µM (active) | 0.456 µM (active) | 4.69 µM (inactive) | 3.07 µM (inactive) | 1.74 µM (inactive) | 0.394 µM (active) | 3.78 µM (inactive) | 1.9 µM (inactive) | 1.88 µM (inactive) | 5.92 µM (inactive) | 0.881 µM (active) | 0.665 µM (active) | 1.87 µM (inactive)
4 | CCCCN(CC)CC(C(C)=O)c1c(O)c2ccccc2oc1=O (stereo not given) | > 100 µM (inactive) | > 100 µM (inactive) | > 100 µM (inactive) | > 100 µM (inactive) | > 100 µM (inactive) | > 100 µM (inactive) | > 100 µM (inactive) | > 100 µM (inactive) | > 100 µM (inactive) | > 100 µM (inactive) | > 100 µM (inactive) | > 100 µM (inactive) | > 100 µM (inactive) | > 100 µM (inactive) | > 100 µM (inactive) | > 100 µM (inactive) | > 100 µM (inactive) | > 100 µM (inactive) | > 100 µM (inactive) | > 100 µM (inactive)
5 | CCOc1cc(NC(C)=O)ccc1C(=O)NNC(=O)c1ccccc1OC(C)=O | 6.76 µM (inactive) | 21.5 µM (inactive) | 4.95 µM (inactive) | 3.59 µM (inactive) | 3.03 µM (inactive) | 3.02 µM (inactive) | 7.08 µM (inactive) | 5.45 µM (inactive) | 0.995 µM (active) | 5.19 µM (inactive) | 4.04 µM (inactive) | 5.83 µM (inactive) | 3 µM (inactive) | 8.36 µM (inactive) | 21.5 µM (inactive) | 5.24 µM (inactive) | 21.9 µM (inactive) | 1.05 µM (active) | 4.01 µM (inactive) | 3.86 µM (inactive)
6 | N#Cc1ncn(CCO)c1N | > 100 µM (inactive) | > 100 µM (inactive) | > 100 µM (inactive) | > 100 µM (inactive) | > 100 µM (inactive) | > 100 µM (inactive) | > 100 µM (inactive) | > 100 µM (inactive) | > 100 µM (inactive) | > 100 µM (inactive) | > 100 µM (inactive) | > 100 µM (inactive) | > 100 µM (inactive) | > 100 µM (inactive) | > 100 µM (inactive) | > 100 µM (inactive) | > 100 µM (inactive) | > 100 µM (inactive) | > 100 µM (inactive) | > 100 µM (inactive)
7 | COc1cc(/C=C2\NC(=S)C3Cc4c(OC)c(C)c(OC)c(OC)c4C2N3C)c(OC)c(C)c1OC (stereo not given) | 50.6 µM (inactive) | 16.5 µM (inactive) | 69 µM (inactive) | 33.7 µM (inactive) | > 100 µM (inactive) | 49.4 µM (inactive) | 92.9 µM (inactive) | 48 µM (inactive) | 21.2 µM (inactive) | 22.6 µM (inactive) | 14.9 µM (inactive) | 20 µM (inactive) | 25.6 µM (inactive) | 50.5 µM (inactive) | > 100 µM (inactive) | > 100 µM (inactive) | 65.3 µM (inactive) | 10.4 µM (inactive) | 59.4 µM (inactive) | 21.2 µM (inactive)
